test system: Trichophyton mentagrophytes; assay: Antimicrobial in vivo activity (local) in experimental guinea pig trichophytosis; design: species or system Meerschweinchen der Rasse Pirbright-white; conditions: guinea pigs infected with Trichophyton mentagrophytes; 1% solution in DMSO:glycerol 1:4, local, once daily from day 3 p.i.; meaning only slight redness and isolated scales, or no signs of infection
Excerpt: Weiße Meerschweinchen der Rasse Pirbright-white wurden auf dem geschorenen, nicht skarifizierten Rücken mit einer Mikro- und Makrokonidien-Suspension von Trichophyton mentagrophytes infiziert.
Die infizierten Tiere wurden, beginnend mit dem 3.Tag p.i., 1 x täglich mit 1%-iger Lösung der erfindungsgemäßen Präparate (in Dimethylsulfoxid:Glycerin=1:4) lokal behandelt.
Bei unbehandelten Tieren entwickelt sich innerhalb von 12 Tagen p.i. das typische Bild einer Dermatophytose mit Rötung, Schuppung und Haarausfall bis zum totalen Integument-Defekt an der Infektionsstelle.

| Compound | Wirkung (Infektionszeichen) |
| --- | --- |
| CC(C)(C)C(O)C(=Cn1ccnc1)Oc1ccccc1Cl (stereo not drawn) [Beispiel 5] | gute bis sehr gute Wirkung |
| CC(C)(C)C(O)C(=Cn1ccnc1)Oc1ccc(F)cc1 (stereo not drawn) [Beispiel 1] | gute bis sehr gute Wirkung |
| CC(C)(C)C(O)C(=Cn1ccnc1)Oc1ccc(F)cc1Cl (stereo not drawn) [Beispiel 9] | gute bis sehr gute Wirkung |
